Assay [1] has as its system depression. The experiment in a line: Case history: person seriously depressed for over 10 years. To be noted: one patient; ibuprofen alone. It is filed as in vivo, human. As to the method:
Because there is evidence of elevated formation of prostaglandins in depression, they were given a combined COX-1 and COX-2 inhibitor, ibuprofen. […] The ibuprofen was stopped and they were treated with ethyl-eicosapentaenoate at a dose of 1 g/day. This seemed to have a modest effect but they remained far from well.

Assay [2] deals with forgetfulness, possibly developing Alzheimer's disease (AD). The experiment in a line: Case history: forgetful person, possible Alzheimer's disease. To be noted: one patient; indomethacin alone over six months or so. In kind it is in vivo, human. As to the method:
A person had become very forgetful and their family was concerned that they might be developing Alzheimer's disease (AD). Because there is evidence that the NSAID indomethacin may be able to slow down the progression of AD, their child, who was a doctor, prescribed indomethacin. […] Because of animal work on the beneficial effects of AA in the aging rat brain, 800 mg of AA in triglyceride form was added to the treatment regime.

Consider `CC(C)Cc1ccc(C(C)C(=O)O)cc1` (centres unmarked) [ibuprofen], for which, in assay [1], the effect on depression result was “marginal effect but this was not apparent to observers”.

For the compound `COc1ccc2c(c1)c(CC(=O)O)c(C)n2C(=O)c1ccc(Cl)cc1` [indomethacin], the effect on forgetfulness entry in assay [2] is reported as “may have had a slight effect but there was no dramatic change”.
